From patent US4988517A, “Method and composition for inhibiting colon carcinogenesis” (American Health Foundation, priority 1988, dated 1991)
Entries after “also recorded” stand apart in the source; their conditions may differ.

Key:
[1] = test system: azoxymethane-induced metastasis; experiment: AOM-induced metastasis; format: in vivo, male F344 rats
Text: (§1) Experimental Procedure. Male F344 rats received at weaning were quarantined for 10 days and given access to AIN-76A semipurified diet (control diet). They were then be randomly allocated by weight to one of three dietary groups (control diet and 25 ppm BSC and 25 ppm benzylthiocyanate ("BTC") diets). […] Therefore one of our goals was to compare BSC with its sulfur analog BTC. Each dietary group was divided into AOM-treated (27 animals per subgroup) and vehicle-treated (12 animals per subgroup) subgroups and housed in plastic cages with filter tops in the animal holding room under controlled environmental conditions.
(§2) Beginning at 5 wk of age, groups of rats fed the control diet were transferred to diets containing 25 ppm BSC or 25 ppm BTC. At 7 wk of age, the animals in each group, except the vehicle-treated controls, received two weekly s.c. injections of AOM at a dose level of 15 mg/kg body weight/wk. Vehicle controls were treated with an equal volume of normal saline. One wk after AOM or saline treatment, animals receiving the BSC and BTC diets were transferred to the control diets and continued on this diet until the termination of the experiment. The 1-wk delay before transferring to control diet was to ensure complete metabolism and excretion of the carcinogen. The animals receiving the control diet continued on the same diet. The experiment was terminated 34 wk after the last AOM injection.
(§3) Both AOM-and vehicle-treated animals were sacrificed by CO2 euthanasia. Following laparotomy, the entire stomach, small intestine, and large intestine were resected and opened longitudinally, and the contents flushed with normal saline. The location, number, and size of the colon and small intestinal tumors were noted grossly under the dissection microscope. All other organs, including liver and kidneys, were also examined grossly for tumors. Tissues were fixed in 10% buffered formalin, embedded in paraffin blocks, and processed by routine histological methods with the use of eosin and hematoxylin stains.

[2] = test system: non-selenium-dependent glutathione peroxidase; experiment: Non-selenium-dependent glutathione peroxidase activity in tissues of rats fed the diets; format: in vivo, male F344 rats; conditions: among the dietary groups
Procedure: (§4) Body weights were recorded weekly until the animals reach 16 wk of age and then every 4 wk. Six vehicle-treated animals randomly chosen from each dietary group while they were consuming experimental and control diets were used for tissue and blood plasma glutathione peroxidase analysis.
Biochemical Determination. For the determination of tissue and blood plasma glutathione peroxidase activity, 6 vehicle-treated animals from each dietary group, while the animals were on experimental and control diets, were used. Before sacrificing the animals, blood was obtained under ether anesthesia by cardiac puncture with a syringe. They were then decapitated,and liver, kidneys, small intestine, and colon were rapidly removed. The liver was perfused with ice-cold normal saline. […]
Glutathione peroxidase activity was determined spectrophotometrically according to a modification of the enzyme-coupled assay procedure of Paglia and Valentine. […] Total glutathione peroxide was measured with cumene hydroperoxide as a substrate. Selenium-dependent glutathione peroxide was measured with tert-butyl hydroperoxide. […] Absorbance was measured at 340 nm, and activity was measured from the slope of the lines as mol NADPH oxidized/min/mg protein. […] Protein concentration in the cytosol fraction was measured by the method of Lowry et al. with bovine serum albumin as standard.

[3] = LD50 in humans, extrapolated from rats; design: unit not given here; conditions: extrapolated: 125×70^0.75
Text: (§5) The instant invention may open new approaches to the development of effective and less toxic novel selenium-containing chemopreventive agents. For example, although is too early to determine definitively the optimum dose which will be suitable for human use, we can estimate a dose based on the LD50 of BSC in rats (lethal dose at which 50% of the rats die). […] An order of magnitude of ten (10) times less than the LD50 may be appropriate for humans.

[4] = General toxicity observation in rats fed the diets; format: in vivo, male F344 rats; conditions: 25 ppm in diet
Text: as §1, §2, §4

[5] = test system: azoxymethane-induced colon tumors; experiment: AOM-induced colon tumor incidence and multiplicity (initiation phase feeding); format: in vivo, male F344 rats
Text: as §1, §2, §3
(§6) Statistical Analysis. The data on tumor incidence were analyzed statistically by the x^2 method and Fischer's exact probability test, and tumor multiplicity was analyzed by Student's t test. Biochemical results were analyzed by Student's t test.
(§7) Using the above-identified procedures, a study was made of the effect of feeding benzylselenocyanate and its sulfur analogue, benzylthiocyanate, two (2) weeks before, during and until one (1) week after carcinogen administration (initiation phase) on intestinal carcinogenesis induced by azoxymethane (CAS: 25843-45-2) in male F344 rats.

[6] = test system: azoxymethane-induced ear duct tumors; experiment: AOM-induced ear duct tumor incidence; format: in vivo, male F344 rats; conditions: 25 ppm in diet; AOM treated
Text: as §1, §2
Both AOM-and vehicle-treated animals were sacrificed by CO2 euthanasia. Following laparotomy, the entire stomach, small intestine, and large intestine were resected and opened longitudinally, and the contents flushed with normal saline. The location, number, and size of the colon and small intestinal tumors were noted grossly under the dissection microscope. All other organs, including liver and kidneys, were also examined grossly for tumors. […]
as §6

[7] = test system: azoxymethane-induced small intestinal tumors; experiment: AOM-induced small intestinal tumor incidence and multiplicity; format: in vivo, male F344 rats
Text: as §1, §2, §3, §6, §7

[8] = test system: selenium-dependent glutathione peroxidase; experiment: Selenium-dependent glutathione peroxidase activity in tissues of rats fed the diets; format: in vivo, male F344 rats
Procedure: as §4
Biochemical Determination. For the determination of tissue and blood plasma glutathione peroxidase activity, 6 vehicle-treated animals from each dietary group, while the animals were on experimental and control diets, were used. Before sacrificing the animals, blood was obtained under ether anesthesia by cardiac puncture with a syringe. They were then decapitated,and liver, kidneys, small intestine, and colon were rapidly removed. The liver was perfused with ice-cold normal saline. The small intestine and colon were slit open longitudinally and freed from all the contents, and the mucosa was scraped with a microscope glass slide. The liver and kidneys were trimmed free of connective tissue, minced with scissors, and homogenized for 10 s in 3 volumes of buffer, pH 7.3 (0.25 sucrose-10 mM EDTA-50 mM potassium phosphate) using a Brinkman Polytron at low speed. The colonic and small intestinal mucosal scrapings were immediately placed into 3 volumes of the same buffer and homogenized similarly. The homogenates were centrifuged in a Sorvall RC-2B centrifuge at 10,000×g, 4° C., for 20 min. The supernatant was centrifuged in a Beckman Ultracentrifuge at 100,000×g, 4° C., for 1 h. The resulting cytosol fraction was used for determination of glutathione peroxidase activity and protein.
Glutathione peroxidase activity was determined spectrophotometrically according to a modification of the enzyme-coupled assay procedure of Paglia and Valentine. The reaction mixture consisted of 50 mM potassium phosphate buffer (pH 7.0), 1 mM EDTA, 0.2 mM NADPH, 1 enzyme unit/ml oxidized glutathione-reductase, 1 mM glutathione, and 1.5 mM cumene hydroperoxide in a total volume of 1 ml. The cytosol was added to the above mixture and allowed to incubate 5 min. at room temperature. Total glutathione peroxide was measured with cumene hydroperoxide as a substrate. Selenium-dependent glutathione peroxide was measured with tert-butyl hydroperoxide. The reaction was started with the addition of substrate solution. Absorbance was measured at 340 nm, and activity was measured from the slope of the lines as mol NADPH oxidized/min/mg protein. Blank reactions without cytosol were run simultaneously. Protein concentration in the cytosol fraction was measured by the method of Lowry et al. with bovine serum albumin as standard.
as §6

[9] = test system: benzo(a) pyrene-induced forestomach tumors; conditions: mice; cited from earlier work
[10] = LD50 in rats; conditions: rat, in vivo
Text: as §5

[11] = Body weights of male F344 rats fed the experimental diets; format: in vivo; conditions: for Body wt, Initial (Wk 0) / Body wt, wk 4 / Body wt, wk 8 / Body wt, wk 16 / Body wt, wk 22 / Body wt, wk 30 / Body wt, wk 37 (at termination): 25 ppm in diet, Mean ± SD
Text: as §1, §2, §4

[12] = 25 ppm in diet 2 wk before to 1 wk after AOM
[13] = 25 ppm in diet, 27 (BSC) or 26 (BTC) animals/group
[14] = 25 ppm in diet 5 wk, Mean ± SE (n = 6)

## N#C[Se]Cc1ccccc1 [BSC, benzylselenocyanate]
[1]; 25 ppm in diet, AOM treated
  No. of animals with metastasis: 0 No. of animals
[1]; several organs
  AOM-induced metastasis (in words): inhibits AOM-induced metastasis in several organs; also recorded: none of the animals in BSC and BTC diet groups developed metastasis
[2]
  Non-selenium-dependent glutathione peroxidase activity (in words): no differences in the activity of non-selenium-dependent glutathione peroxidase activity among the dietary groups
[3]
  approximate LD50 in humans: ~3025
[4]
  Evidence of toxicity in animals fed the diet: no evidence of toxicity
[5]; [12]
  Colon tumor incidence, Adenocarcinoma: 11 % of animals with tumors
  Colon tumor incidence, Adenoma: 44 % of animals with tumors
  Colon tumor incidence, Total (adenomas plus adenocarcinomas): 48 % of animals with tumors
[5]; [13]
  Number of animals with colon tumors, Adenocarcinoma: 3 number of animals
  Number of animals with colon tumors, Adenoma: 12 number of animals
  Number of animals with colon tumors, Total: 13 number of animals
[5]; 25 ppm in diet, Mean ± SD
  Colon tumor multiplicity, Adenocarcinoma: 0.11 ± 0.3 no. of tumors/animals
  Colon tumor multiplicity, Adenoma: 0.70 ± 0.9 no. of tumors/animals
  Colon tumor multiplicity, Total: 0.81 ± 1.0 no. of tumors/animals
[5]; 25 ppm in diet, in parentheses
  Number of tumors per group, colon Adenocarcinoma: 3 number of tumors per group
[5]; initiation phase of carcinogenesis
  Inhibition of AOM-induced colon tumors (in words): inhibits AOM-induced tumors in the colon; also recorded: inhibited colon tumors during the initiation phase of carcinogenesis
[5]; vs control diet
  Incidence of adenocarcinomas of the colon (in words): significantly lower in rats fed the BSC diet than in those fed the control diet; also recorded: significantly inhibits
  Incidence of total colon tumors (in words): significantly lower in rats fed the BSC diet than in those fed the control diet
[5]; vs control diet and BTC diet
  Number of colon adenocarcinomas per animal (in words): significally inhibited in animals fed the BSC diet compared to those fed the control diet and BTC diet; also recorded: significantly inhibits
  Number of total colon tumors per animal (in words): significally inhibited in animals fed the BSC diet compared to those fed the control diet and BTC diet
[5]; vs control diet and BTC diet, not statistically significant
  Multiplicity of colon adenomas (in words): slight inhibition of multiplicity of adenomas in the BSC diet as compared to the control diet and BTC diet
[6]
  % of animals with ear duct tumors: 7 % of animals
[7]; [12]
  Small intestinal tumor incidence, Adenocarcinoma: 15 % of animals with tumors
  Small intestinal tumor incidence, Adenoma: 4 % of animals with tumors
  Small intestinal tumor incidence, Total: 19 % of animals with tumors
[7]; [13]
  Number of animals with small intestinal tumors, Adenocarcinoma: 4 number of animals
  Number of animals with small intestinal tumors, Adenoma: 1 number of animals
  Number of animals with small intestinal tumors, Total: 5 number of animals
[7]; 25 ppm in diet, Mean ± SD
  Small intestinal tumor multiplicity, Adenocarcinoma: 0.15 0.3 no. of tumors/animal
  Small intestinal tumor multiplicity, Adenoma: 0.04 0.2 no. of tumors/animal
  Small intestinal tumor multiplicity, Total: 0.19 0.3 no. of tumors/animal
[7]; differences among groups not significant
  Incidence of small intestinal adenocarcinomas (in words): slightly reduced the incidence of small intestinal adenocarcinomas
[7]; rat, in vivo
  Inhibition of AOM-induced tumors in the small intestine (in words): to a certain extent, in the small intestine
[7]; vs BTC diet and control diet
  Small intestinal tumor multiplicity, total (in words): significantly inhibited in animals fed the BSC diet compared to those fed the BTC diet and control diet
[7]; vs control diet
  Multiplicity of small intestinal adenocarcinomas (in words): significant inhibition in the multiplicity of small intestinal adenocarcinomas; also recorded: significantly inhibits
[8]; [14]
  Selenium-dependent glutathione peroxidase activity, Kidney: 1.70 0.29 μmol NADPH oxidized/min/mg protein
  Selenium-dependent glutathione peroxidase activity, Liver: 1.88 0.60 μmol NADPH oxidized/min/mg protein
  Selenium-dependent glutathione peroxidase activity, Plasma: 0.78 0.14 μmol NADPH oxidized/min/mg protein
[8]; 25 ppm in diet 5 wk, colonic mucosa, Mean ± SE (n = 6)
  Selenium-dependent glutathione peroxidase activity, Colon: 0.56 0.14 μmol NADPH oxidized/min/mg protein
[8]; 25 ppm in diet 5 wk, small intestinal mucosa, Mean ± SE (n = 6)
  Selenium-dependent glutathione peroxidase activity, Small intestine: 0.71 0.13 μmol NADPH oxidized/min/mg protein
[8]; kidney, colon and small intestine
  Selenium-dependent glutathione peroxidase activity (in words): increase in selenium-dependent glutathione peroxidase activity in the kidney, colon, and small intestine; also recorded: significant increase in the enzyme activity in kidney and colonic and small intestinal mucosae of animals fed the BSC diet compared to that in those animals fed the BTC diet and control diet
[8]; liver and plasma
  Selenium-dependent glutathione peroxidase activity (in words): no effect on this enzyme activity in the liver and plasma; also recorded: not affected
[9]
  Inhibition of benzo(a)pyrene-induced forestomach tumors: effective inhibitors of benzo(a) pyrene-induced forestomach tumors in mice
[10]
  LD50: 125 mg/kg
[11]; AOM or vehicle treated, in words
  Body weights of animals fed experimental vs control diets: comparable
[11]; AOM treated
  Body wt, Initial (Wk 0): 40 ± 4 g
  Body wt, wk 4: 174 ± 9 g
  Body wt, wk 8: 279 ± 15 g
  Body wt, wk 16: 348 ± 16 g
  Body wt, wk 22: 390 ± 21 g
  Body wt, wk 30: 430 ± 20 g
  Body wt, wk 37 (at termination): 449 ± 22 g
[11]; Vehicle treated
  Body wt, Initial (Wk 0): 41 ± 4 g
  Body wt, wk 4: 179 ± 12 g
  Body wt, wk 8: 284 ± 19 g
  Body wt, wk 16: 364 ± 19 g
  Body wt, wk 22: 402 ± 20 g
  Body wt, wk 30: 448 ± 26 g
  Body wt, wk 37 (at termination): 467 ± 21 g
